Assay results reported in patent US11753395B2 (Kinnate Biopharma Inc., priority 2021, dated 2023).

Experiments:
MET D1228N = target: T1, MET D1228N (Homo sapiens, UniProt P08581, D1228N); test: MET D1228N Mobility Shift Assay; details: biochemical assay IC50; 100 μM ATP, 60 minute kinase reaction
T1 construct: purchased Signalchem M52-12IG
Summary of the method: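 Enzyme at 0.313 nM preincubated 30 min at room temperature with 1.5 μM FAM-labelled peptide and 10 mM MgCl2 in HEPES buffer with DTT; reaction started with 100 μM ATP, run 60 min, stopped with EDTA. Substrate/product separated by microfluidic mobility shift; IC50 from inhibition of % conversion.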

[1] = target: T2, Ba/F3-TPR-MET-D1228N cells (Homo sapiens, UniProt P08581, D1228N, cells depend on it); test: CellTiter-Glo Cell Viability Assay, Ba/F3-TPR-MET-D1228N; assay type: cell-based; details: 72 hours
T2 construct: fused on or other part: P12270 (Nucleoprotein TPR)
Summary of the method: (§1)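 Ba/F3 cells carrying TPR-MET or TPR-MET-D1228N, 3000 per well, were exposed for 72 h at 37 °C to 9-point 3-fold compound dilutions at 0.1% DMSO. Viability was read as ATP by CellTiter-Glo 2.0 luminescence, and IC50 values came from curve fitting.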

Ba/F3-TPR-MET cells = target: T3, Ba/F3-TPR-MET cells (Homo sapiens, UniProt P08581); test: CellTiter-Glo Cell Viability Assay, Ba/F3-TPR-MET; assay type: cell-based; details: 72 hours
T3 construct: fused on or other part: P12270 (Nucleoprotein TPR)
Summary of the method: as §1

MET = target: T4, MET (Homo sapiens, UniProt P08581); test: MET Mobility Shift Assay; details: biochemical assay IC50; 100 μM ATP, 60 minute kinase reaction
T4 construct: purchased Carna Biosciences 08-151
Summary of the method: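 Recombinant MET at 0.625 nM was pre-incubated 30 min at room temperature with 1.5 μM FLPeptide30 and 10 mM MgCl2 in HEPES buffer with DTT. The reaction was started with 100 μM ATP, ran 60 min, and was stopped with EDTA. Microfluidic mobility-shift % conversion gave IC50.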

T1 sequence (P08581 25-1390 D1228N): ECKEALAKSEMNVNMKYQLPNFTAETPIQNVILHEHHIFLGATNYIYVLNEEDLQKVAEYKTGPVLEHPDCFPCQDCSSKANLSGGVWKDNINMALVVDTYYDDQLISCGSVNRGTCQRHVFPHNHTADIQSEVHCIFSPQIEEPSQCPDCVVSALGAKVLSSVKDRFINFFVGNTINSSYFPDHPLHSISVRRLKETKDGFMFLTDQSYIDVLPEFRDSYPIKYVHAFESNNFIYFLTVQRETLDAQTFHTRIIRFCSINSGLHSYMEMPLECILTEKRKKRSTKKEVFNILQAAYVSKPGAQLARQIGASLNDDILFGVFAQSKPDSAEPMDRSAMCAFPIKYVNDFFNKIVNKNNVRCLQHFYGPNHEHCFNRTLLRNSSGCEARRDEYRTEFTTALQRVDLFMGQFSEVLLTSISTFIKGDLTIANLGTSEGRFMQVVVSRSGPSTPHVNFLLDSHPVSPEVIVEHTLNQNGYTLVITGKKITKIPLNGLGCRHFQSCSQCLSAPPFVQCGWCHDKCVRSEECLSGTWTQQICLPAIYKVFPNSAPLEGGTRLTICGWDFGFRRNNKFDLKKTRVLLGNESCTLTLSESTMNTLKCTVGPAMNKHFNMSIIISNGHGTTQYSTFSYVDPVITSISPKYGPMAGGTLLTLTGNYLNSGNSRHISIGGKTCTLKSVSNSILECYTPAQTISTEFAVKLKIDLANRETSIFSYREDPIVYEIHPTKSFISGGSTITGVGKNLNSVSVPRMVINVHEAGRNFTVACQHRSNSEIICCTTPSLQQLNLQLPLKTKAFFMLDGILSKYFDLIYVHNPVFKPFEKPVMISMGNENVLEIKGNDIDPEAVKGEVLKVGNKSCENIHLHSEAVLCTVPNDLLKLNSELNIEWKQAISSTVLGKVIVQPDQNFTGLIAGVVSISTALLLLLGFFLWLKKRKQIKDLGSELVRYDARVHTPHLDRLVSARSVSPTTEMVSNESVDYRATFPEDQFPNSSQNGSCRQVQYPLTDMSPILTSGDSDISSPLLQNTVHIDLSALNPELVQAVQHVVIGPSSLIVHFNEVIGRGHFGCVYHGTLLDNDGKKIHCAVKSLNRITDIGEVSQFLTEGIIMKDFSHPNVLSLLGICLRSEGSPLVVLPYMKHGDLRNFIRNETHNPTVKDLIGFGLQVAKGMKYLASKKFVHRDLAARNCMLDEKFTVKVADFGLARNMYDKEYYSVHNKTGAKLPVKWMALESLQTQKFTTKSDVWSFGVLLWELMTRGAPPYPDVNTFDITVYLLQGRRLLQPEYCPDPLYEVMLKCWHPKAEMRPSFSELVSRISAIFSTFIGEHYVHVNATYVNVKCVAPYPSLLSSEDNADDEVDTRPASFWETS
T2 sequence (P08581 whole entry D1228N, the tested form may be a part): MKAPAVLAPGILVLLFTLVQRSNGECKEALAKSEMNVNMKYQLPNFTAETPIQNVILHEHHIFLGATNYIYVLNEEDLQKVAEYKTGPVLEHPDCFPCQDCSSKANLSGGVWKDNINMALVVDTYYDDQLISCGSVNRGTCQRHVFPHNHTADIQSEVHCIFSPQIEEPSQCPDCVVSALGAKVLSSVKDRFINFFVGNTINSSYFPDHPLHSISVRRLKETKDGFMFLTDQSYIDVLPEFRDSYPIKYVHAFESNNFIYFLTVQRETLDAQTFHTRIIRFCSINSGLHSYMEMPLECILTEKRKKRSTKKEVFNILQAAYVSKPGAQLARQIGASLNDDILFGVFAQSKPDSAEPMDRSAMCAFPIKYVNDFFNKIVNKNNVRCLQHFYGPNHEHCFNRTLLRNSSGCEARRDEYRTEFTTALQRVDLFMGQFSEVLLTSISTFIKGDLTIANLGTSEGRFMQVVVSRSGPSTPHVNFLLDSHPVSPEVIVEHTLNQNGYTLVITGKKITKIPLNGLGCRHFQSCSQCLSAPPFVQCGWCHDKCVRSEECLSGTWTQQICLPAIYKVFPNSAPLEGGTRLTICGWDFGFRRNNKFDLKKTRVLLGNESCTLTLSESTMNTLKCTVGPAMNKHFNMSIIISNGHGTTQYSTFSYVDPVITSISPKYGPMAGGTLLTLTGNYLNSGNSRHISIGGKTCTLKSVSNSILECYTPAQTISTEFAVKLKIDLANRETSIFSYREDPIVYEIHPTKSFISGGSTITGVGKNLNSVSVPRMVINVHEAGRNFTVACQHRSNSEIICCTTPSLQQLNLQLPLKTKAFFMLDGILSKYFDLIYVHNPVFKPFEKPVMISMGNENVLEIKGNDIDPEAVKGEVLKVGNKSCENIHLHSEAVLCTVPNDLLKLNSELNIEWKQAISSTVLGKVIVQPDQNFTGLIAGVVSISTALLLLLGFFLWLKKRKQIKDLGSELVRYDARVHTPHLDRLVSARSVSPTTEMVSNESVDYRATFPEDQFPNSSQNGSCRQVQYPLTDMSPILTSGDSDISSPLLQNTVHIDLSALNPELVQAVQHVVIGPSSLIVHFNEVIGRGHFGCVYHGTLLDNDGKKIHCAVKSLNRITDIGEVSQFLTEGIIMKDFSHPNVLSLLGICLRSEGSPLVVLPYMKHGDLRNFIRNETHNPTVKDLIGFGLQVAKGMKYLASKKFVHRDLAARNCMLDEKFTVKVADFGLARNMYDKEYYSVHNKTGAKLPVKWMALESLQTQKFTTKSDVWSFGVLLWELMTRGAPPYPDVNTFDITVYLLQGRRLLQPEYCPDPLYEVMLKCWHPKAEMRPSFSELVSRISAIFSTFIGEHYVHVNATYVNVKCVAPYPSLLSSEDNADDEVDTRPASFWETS
T3 sequence (P08581 whole entry, change not shown, the tested form may be a part): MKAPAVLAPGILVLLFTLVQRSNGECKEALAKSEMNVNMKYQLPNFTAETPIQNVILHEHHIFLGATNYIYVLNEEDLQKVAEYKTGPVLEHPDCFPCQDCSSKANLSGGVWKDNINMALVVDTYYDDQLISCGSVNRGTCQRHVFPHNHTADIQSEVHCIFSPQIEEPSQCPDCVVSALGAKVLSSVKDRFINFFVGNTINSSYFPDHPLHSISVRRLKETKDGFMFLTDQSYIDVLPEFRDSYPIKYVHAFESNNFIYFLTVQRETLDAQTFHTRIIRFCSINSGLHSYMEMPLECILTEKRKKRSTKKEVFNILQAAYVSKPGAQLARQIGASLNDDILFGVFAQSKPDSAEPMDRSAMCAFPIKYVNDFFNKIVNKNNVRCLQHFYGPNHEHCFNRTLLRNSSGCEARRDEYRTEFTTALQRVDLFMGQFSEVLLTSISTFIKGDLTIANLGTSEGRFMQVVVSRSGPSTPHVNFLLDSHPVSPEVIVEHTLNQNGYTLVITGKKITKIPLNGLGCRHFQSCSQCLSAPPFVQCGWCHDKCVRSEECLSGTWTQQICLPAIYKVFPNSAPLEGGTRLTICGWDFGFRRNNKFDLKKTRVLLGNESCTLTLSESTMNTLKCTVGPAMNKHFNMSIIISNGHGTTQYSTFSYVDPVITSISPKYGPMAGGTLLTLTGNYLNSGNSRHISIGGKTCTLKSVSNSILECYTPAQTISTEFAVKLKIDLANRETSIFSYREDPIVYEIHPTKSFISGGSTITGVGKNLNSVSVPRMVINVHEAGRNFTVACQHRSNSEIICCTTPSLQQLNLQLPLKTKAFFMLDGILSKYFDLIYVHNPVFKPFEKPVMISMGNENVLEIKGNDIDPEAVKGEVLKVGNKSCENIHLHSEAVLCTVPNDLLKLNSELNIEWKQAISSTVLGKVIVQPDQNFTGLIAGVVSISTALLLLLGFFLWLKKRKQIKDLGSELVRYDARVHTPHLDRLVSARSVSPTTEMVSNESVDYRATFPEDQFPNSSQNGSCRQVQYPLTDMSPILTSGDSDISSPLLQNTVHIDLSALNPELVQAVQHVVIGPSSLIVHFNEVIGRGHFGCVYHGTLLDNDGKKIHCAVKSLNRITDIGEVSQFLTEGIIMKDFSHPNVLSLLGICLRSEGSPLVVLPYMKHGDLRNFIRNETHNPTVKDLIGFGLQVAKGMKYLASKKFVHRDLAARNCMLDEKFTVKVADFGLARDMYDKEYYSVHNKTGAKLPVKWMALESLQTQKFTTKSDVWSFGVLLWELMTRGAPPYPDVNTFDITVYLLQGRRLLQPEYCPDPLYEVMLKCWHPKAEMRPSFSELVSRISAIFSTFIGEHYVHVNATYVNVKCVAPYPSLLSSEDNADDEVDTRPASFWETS

SMILES | IC50 (MET D1228N) [nM] | EC50 [1] [nM] | EC50 (Ba/F3-TPR-MET cells) [nM] | IC50 (MET) [nM]
COc1cc2nccc(Oc3c(F)cc(NC(=O)c4c(OC5CC5)ccnc4F)cc3F)c2nc1OC [Example 144, 4-cyclopropoxy-N-(4-((6,7-dimethoxy-1,5-naphthyridin-4-yl)oxy)-3,5-difluorophenyl)-2-fluoropyridine-3-carboxamide] | ≤ 100 | ≤ 100 | ≤ 100 | ≤ 100
COCCOc1cc2nccc(Oc3c(F)cc(NC(=O)c4cnccc4OC)cc3F)c2nc1OC [Example 137, N-(3,5-difluoro-4-((6-methoxy-7-(2-methoxyethoxy)-1,5-naphthyridin-4-yl)oxy)phenyl)-4-methoxypyridine-3-carboxamide] | ≤ 100 | ≤ 100 | ≤ 100 | ≤ 100
CNCCOc1cc2nccc(Oc3c(F)cc(NC(=O)c4cnccc4OC4COC4)cc3F)c2cc1OC [Example 68, N-[3,5-difluoro-4-({6-methoxy-7-[2-(methylamino)ethoxy]quinolin-4-yl}oxy)phenyl]-4-(oxetan-3-yloxy)pyridine-3-carboxamide] | ≤ 100 | ≤ 100 | 100 to 1000 | ≤ 100
COc1cc2nccc(Oc3c(F)cc(NC(=O)c4nnccc4OC4CC4)cc3F)c2cc1OC [Example 149, 4-cyclopropoxy-N-(4-((6,7-dimethoxyquinolin-4-yl)oxy)-3,5-difluorophenyl)pyridazine-3-carboxamide] | ≤ 100 | ≤ 100 | 100 to 1000 | ≤ 100
COc1cc2nccc(Oc3c(F)cc(NC(=O)c4cnccc4OC4CC4)cc3F)c2cc1OCCO [Example 107, 4-cyclopropoxy-N-(3,5-difluoro-4-((6-(2-hydroxyethoxy)-7-methoxyquinolin-4-yl)oxy)phenyl)pyridine-3-carboxamide] | ≤ 100 | ≤ 100 | ≤ 100 | ≤ 100
COc1ccncc1C(=O)Nc1cc(F)c(Oc2ccnc3cc(OCC(C)(C)O)ccc23)c(F)c1 [Example 40, N-(3,5-difluoro-4-{[7-(2-hydroxy-2-methylpropoxy)quinolin-4-yl]oxy}phenyl)-4-methoxypyridine-3-carboxamide] | ≤ 100 | 100 to 1000 | 100 to 1000 | ≤ 100
COc1cc(OC2CC2)c(C(=O)Nc2cc(F)c(Oc3ccnc4cc(OCCO)c(OC)cc34)c(F)c2)cn1 [Example 111, 4-cyclopropoxy-N-(3,5-difluoro-4-((7-(2-hydroxyethoxy)-6-methoxyquinolin-4-yl)oxy)phenyl)-6-methoxypyridine-3-carboxamide] | ≤ 100 | ≤ 100 | ≤ 100 | ≤ 100
CNCCOc1cc2nccc(Oc3cc(F)c(NC(=O)c4c(OC)ccnc4F)cc3F)c2cc1OC [Example 25, N-[2,5-difluoro-4-({6-methoxy-7-[2-(methylamino)ethoxy]quinolin-4-yl}oxy)phenyl]-2-fluoro-4-methoxypyridine-3-carboxamide] | ≤ 100 | 100 to 1000 | 100 to 1000 | ≤ 100
CNCCOc1cc2nccc(Oc3c(F)cc(NC(=O)c4cnccc4OCC(C)(C)O)cc3F)c2cc1OC [Example 66, N-(3,5-difluoro-4-((6-methoxy-7-(2-(methylamino)ethoxy)quinolin-4-yl)oxy)phenyl)-4-(2-hydroxy-2-methylpropoxy)pyridine-3-carboxamide] | ≤ 100 | 100 to 1000 | 100 to 1000 | ≤ 100
CNCCOc1cc2nccc(Oc3ccc(NC(=O)c4cnccc4OC)c(F)c3F)c2cc1OC [Example 14, N-(2,3-difluoro-4-((6-methoxy-7-(2-(methylamino)ethoxy)quinolin-4-yl)oxy)phenyl)-4-methoxypyridine-3-carboxamide] | ≤ 100 | 100 to 1000 | 100 to 1000 | ≤ 100
CNCCOc1cc2nccc(Oc3c(F)cc(NC(=O)c4cnccc4OCC(F)F)cc3F)c2cc1OC [Example 60, N-[3,5-difluoro-4-({6-methoxy-7-[2-(methylamino)ethoxy]quinolin-4-yl}oxy)phenyl]-4-(2,2-difluoroethoxy)pyridine-3-carboxamide] | ≤ 100 | ≤ 100 | ≤ 100 | ≤ 100
CCCCOc1ccncc1C(=O)Nc1cc(F)c(Oc2ccnc3cc(OCCNC)c(OC)cc23)c(F)c1 [Example 69, 4-butoxy-N-[3,5-difluoro-4-({6-methoxy-7-[2-(methylamino)ethoxy]quinolin-4-yl}oxy)phenyl]pyridine-3-carboxamide] | ≤ 100 | ≤ 100 | ≤ 100 | ≤ 100
CCOc1ccncc1C(=O)Nc1cc(F)c(Oc2ccnc3cc(OCCNC)c(OC)cc23)c(F)c1F [Example 51, 4-ethoxy-N-[2,3,5-trifluoro-4-({6-methoxy-7-[2-(methylamino)ethoxy]quinolin-4-yl}oxy)phenyl]pyridine-3-carboxamide] | ≤ 100 | ≤ 100 | 100 to 1000 | ≤ 100
CCOc1ccnc(F)c1C(=O)Nc1cc(F)c(Oc2ccnc3cc(OCCCNC)c(OC)cc23)c(F)c1 [Example 119] | ≤ 100 | 100 to 1000 | 100 to 1000 | ≤ 100
COCCOc1cnc2c(Oc3c(F)cc(NC(=O)c4ccccc4F)cc3F)ccnc2c1 [Example 140, N-(3,5-difluoro-4-((7-(2-methoxyethoxy)-1,5-naphthyridin-4-yl)oxy)phenyl)-2-fluorobenzamide] | ≤ 100 | ≤ 100 | ≤ 100 | ≤ 100
COCCOc1ccc2c(Oc3c(F)cc(NC(=O)c4nnccc4OC4CC4)cc3F)ccnc2c1 [Example 120, 4-cyclopropoxy-N-(3,5-difluoro-4-((7-(2-methoxyethoxy)quinolin-4-yl)oxy)phenyl)pyridazine-3-carboxamide] | ≤ 100 | 100 to 1000 | 100 to 1000 | ≤ 100
COc1cc2nccc(Oc3c(F)cc(NC(=O)c4cnccc4OC4CC4)cc3F)c2cc1O[C@@H](C)CO [Example 129, (S)-4-cyclopropoxy-N-(3,5-difluoro-4-((6-((1-hydroxypropan-2-yl)oxy)-7-methoxyquinolin-4-yl)oxy)phenyl)nicotinamide] | ≤ 100 | ≤ 100 | ≤ 100 | ≤ 100
CNCCOc1cc2nccc(Oc3c(F)cc(NC(=O)c4cnccc4OCCCF)cc3F)c2cc1OC [Example 58, N-[3,5-difluoro-4-({6-methoxy-7-[2-(methylamino)ethoxy]quinolin-4-yl}oxy)phenyl]-4-(3-fluoropropoxy)pyridine-3-carboxamide] | ≤ 100 | ≤ 100 | ≤ 100 | ≤ 100
CCOc1ccncc1C(=O)Nc1ccc(Oc2ccnc3cc(OCCCNC)c(OC)cc23)c(F)c1F [Example 17, N-[2,3-difluoro-4-({6-methoxy-7-[3-(methylamino)propoxy]quinolin-4-yl}oxy)phenyl]-4-ethoxypyridine-3-carboxamide] | ≤ 100 | ≤ 100 | ≤ 100 | ≤ 100
CCOc1ccncc1C(=O)Nc1cc(F)c(Oc2ccnc3cc(OCCNC)c(OC)cc23)c(F)c1 [Example 5, N-(3,5-difluoro-4-((6-methoxy-7-(2-(methylamino)ethoxy)quinolin-4-yl)oxy)phenyl)-4-ethoxypyridine-3-carboxamide] | ≤ 100 | ≤ 100 | ≤ 100 | ≤ 100
CNCCCOc1cc2nccc(Oc3c(F)cc(NC(=O)c4c(OC)ccnc4F)cc3F)c2cc1OC [Example 20, N-(3,5-difluoro-4-((6-methoxy-7-(3-(methylamino)propoxy)quinolin-4-yl)oxy)phenyl)-2-fluoro-4-methoxypyridine-3-carboxamide] | ≤ 100 | ≤ 100 | ≤ 100 | ≤ 100
CNCCOc1cc2nccc(Oc3c(F)cc(NC(=O)c4cnccc4OC)cc3F)c2cc1OC [Example 1, N-(3,5-difluoro-4-((6-methoxy-7-(2-(methylamino)ethoxy)quinolin-4-yl)oxy)phenyl)-4-methoxypyridine-3-carboxamide] | ≤ 100 | ≤ 100 | ≤ 100 | ≤ 100
CNCCOc1ccc2c(Oc3c(F)cc(NC(=O)c4ccncc4OC4CC4)cc3F)ccnc2c1 [Example 81, 3-cyclopropoxy-N-(3,5-difluoro-4-((7-(2-(methylamino)ethoxy)quinolin-4-yl)oxy)phenyl)isonicotinamide] | ≤ 100 | ≤ 100 | ≤ 100 | ≤ 100
CCCOc1ccncc1C(=O)Nc1ccc(Oc2ccnc3cc(OCCNC)c(OC)cc23)c(F)c1F [Example 82, N-[2,3-difluoro-4-({6-methoxy-7-[2-(methylamino)ethoxy]quinolin-4-yl}oxy)phenyl]-4-propoxypyridine-3-carboxamide] | ≤ 100 | 100 to 1000 | 100 to 1000 | ≤ 100
